Test results: patent US7647217B2, “Structure of the farnesoid X receptor ligand binding domain and methods of use therefor” (The Salk Institute for Biological Studies, priority 2002, dated 2010)

What was measured:
[1] = test system: IBABP mRNA in HT29-FXRFL cells; test: Northern blot of IBABP mRNA induction in HT29 stable cell lines; type: cell-based, human; settings: for induction of IBABP mRNA in control lines: HT29-BABE or HT29-FXR-AF2 cell lines; for concentration of maximal activation of the IBABP gene / induction of IBABP mRNA: HT29-FXRFL, overnight treatment
Description: 20 μg total RNA was isolated using Trizol (Invitrogen) and used for Northern blot analysis. cDNA probe for human IBABP was prepared and hybridized to the blot. Blots were normalized by β-actin expression.
HepG2 or HT29-derived cell lines were typically cultured in medium containing superstripped FBS for 24 hr before the addition of a ligand or DMSO (vehicle) for an additional 24-48 hr. Total RNA was isolated using TRIzol reagent and was resolved (10 μg/lane) on a 1% agarose, 2.2 M formaldehyde gel, transferred to a nylon membrane (Hybond N^+; Amersham Biosciences, Inc.), and cross-linked to the membrane with UV light.
cDNA probes were radiolabeled with [α-^32P]dCTP using the highprime labeling kit (Amersham Biosciences, Inc.). Membranes were hybridized using the QuikHyb hybridization solution (Stratagene, La Jolla, Calif.) according to the manufacturer's protocol. Blots were normalized for variations of RNA loading by hybridization to a control probe, either, 18 S ribosomal cDNA, or the ribosomal protein 36B4. The RNA levels were quantitated using a PhosphorImager (ImageQuant software; Molecular Dynamics, Inc., Sunnyvale, Calif.) in addition to being exposed to X-ray film.
Human colon cells HT29 (FXR null until differentiated) were infected with retroviral vectors that expressed either FXR constructs and the puromycin-resistant gene or the puromycin-resistant gene alone. Puromycin resistant cells were isolated and pooled cell populations were propagated that harbored either the vector alone (HT29-BABE), overexpressed FXR full length (HT29-FXRFL), a non-functional FXR truncated at the AF2 region (HT29-FXR-AF2), or a constitutively active FXR that has the VP16 activation domain fused N-terminal of the protein (HT29-VP16-FXR). Confirmation of the successful establishment of the different stable cell lines was established via northern blot analysis of FXR message levels in the cells (see FIG. 4A). […]
The ability of the novel compounds identified herein to induce IBABP gene expression in this cell system was also examined. Total RNA from HT29 stable cells treated overnight with fexaramine, fexarine and fexarene was probed for IBABP gene expression (see FIG. 4D).

[2] = target: T1, FXR ligand-binding domain (Homo sapiens, UniProt Q96RI1); test: FRET-based coactivator (SRC-1 peptide) binding assay; type: biochemical; settings: for EC50: agonist mode, 8 nM GST-FXR LBD, 16 nM SRC-1 peptide, read-out: EC50 of SRC-1 peptide recruitment
T1 construct: made in house; host or cells: E. coli BL21 (DE3)
T1 sequence (Q96RI1 258-486): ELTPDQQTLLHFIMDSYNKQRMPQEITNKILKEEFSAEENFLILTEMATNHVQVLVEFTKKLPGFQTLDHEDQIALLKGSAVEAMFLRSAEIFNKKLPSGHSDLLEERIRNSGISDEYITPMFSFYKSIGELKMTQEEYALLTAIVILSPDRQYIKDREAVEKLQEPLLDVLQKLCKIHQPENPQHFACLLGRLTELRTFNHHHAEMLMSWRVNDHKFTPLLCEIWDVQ
Description: Increasing amounts of the compounds were added as indicated. Binding reactions contained 8 nM Europium labeled GST-FXR ligand-binding domain fusion protein and 16 nM allophycocyanin-labeled SRC-1 receptor binding peptide. Results are expressed at 1000*(665 nm/615 nm).
Standard PCR amplifications of the LBD of human FXR (residues 248 to 476) and sub-cloning techniques were used to generate pGEX Glutathione-s-transferase (GST) and pHIS8-3 (Jez et al. (2000) Dissection of malonyl-coenzyme A decarboxylation from polyketide formation in the reaction mechanism of a plant polyketide synthase. Biochemistry 39, 890-902) prokaryote protein expression vectors. DNA fragments containing hFXR aa248 to 476 were cloned into the BamHI site of pGEX-hFXR, while the cloning sites NcoI and BamHI sites were used in pHIS8-3.
To determine if the compounds identified as ligands could promote the association of FXR with co-activators in vitro, a fluorescence resonance energy transfer (FRET)-based coactivator binding assay was employed (see, for example, Makishima et al. (1999), supra; Urizar et al. (2002). A natural product that lowers cholesterol as an antagonist ligand for FXR. Science. 296(5573), 1703-6). This assay relies on an agonist-induced interaction between the nuclear receptor and its coactivator bringing two fluorogenic partners together resulting in the nuclear receptor ligand-dependent FRET.

hPPARαγδ = test: GAL4 chimeric NHR cross-reactivity assay; type: cell-based, human; settings: 10 μM
Description: FIGS. 3A-3E collectively show the results of ligand activation of CV-1 cells co-transfected with a luciferase reporter gene with a variety of receptor expression constructs. […] FIGS. 3C-3E show the results of CV-1 cells transiently transfected with the indicated reporter constructs, treated with either DMSO or 10 μM of the compounds fexaramine (3C), fexarine (3D), fexarene (3E). Reporter activity was normalized to the internal control and the data plotted as fold activation relative to untreated cells. All transfections contained CMX-βgal as an internal control.
The expression plasmids pCMX, pCMX-LacZ, pCMX-mFXRFL, pCMX-hRXRFL, pCMX-GALDBD-rFXRLBD and other pCUX-GALDBD-NR LBDs (hRXRα, hPPARαγδ, mPXR, hPXR, hLXRα, HTRβ, hRARβ, mCAR, mERR3 and hVDR) have been described elsewhere (Blumberg et al. (1998). SXR, a novel steroid and xenobiotic-sensing nuclear receptor. Genes Dev. 12(20), 3195-205). The reporter plasmids pMH2004-TK-luc, pTKECRE*6-luc, pTKER-8*2-luc and pMRP-2-luc also have been described elsewhere. The hPLTP-luc promoter was kindly provided by Dr Dennis Dowhan and the hIBABP-luc promoter was created from a plasmid provided by Dr Philippe Besnard.
Cell-based transcriptional activation assays using chimeric nuclear hormone receptor (NHR) constructs were established to measure the selectivity of the compounds to FXR relative to other NHRs (Forman et al. (1995). Identification of a nuclear receptor that is activated by farnesol metabolites. Cell 81, 687-693). These assays used fusion proteins with the yeast GAL4 DNA binding domain connected to the ligand-binding domain (LBD) of NHRs. These constructs were co-transfected with a thymidine kinase C minimal promoter reporter vector containing four copies of the GAL4 binding site. Titration experiments were then performed using the identified compounds. […] Addition of RXR had no effect on the activation potential of fexaramine, fexarine, fexarene in this assay.
No activity was observed on other chimeric NHR constructs including hRXRα, hPPARαγδ, mPXR, hPXR, hLXRα, hTRβ, hRARβ, mCAR, mERR3 and hVDR (see FIGS. 3C-3E).

recruitment of SRC-1 peptide [2] | EC50 [2] | Compound | induction of IBABP mRNA in control lines [1] | concentration of maximal activation of the IBABP gene [1] | induction of IBABP mRNA [1] | activity on chimeric hPPARαγδ constructs (hPPARαγδ)
– | – | CC(C)c1onc(-c2c(Cl)cccc2Cl)c1COc1ccc(/C=C/c2cccc(C(=O)O)c2)c(Cl)c1 [GW4064, reference compound] | No induction | 1 µM | robust concentration dependent induction | –
Weaker recruitment | – | COC(=O)/C=C/c1cccc(N(Cc2ccc(-c3ccccc3OC)cc2)C(=O)C(C)C)c1 [SRI-1] | – | – | – | –
Weaker recruitment | – | COC(=O)/C=C/c1cccc(N(Cc2ccc(-c3ccc(C(C)(C)C)cc3)cc2)C(=O)C(C)C)c1 [SRI-2] | – | – | – | –
– | 255 nM | COC(=O)/C=C/c1cccc(N(Cc2ccc(-c3ccc(N(C)C)cc3)cc2)C(=O)C2CCCCC2)c1 [fexaramine] | No induction | 1 µM | induced expression of the IBABP mRNA | No activity
– | ~255 nM | COC(=O)/C=C/c1cccc(N(Cc2ccc(/C=C/c3ccccc3)cc2)C(=O)C2CCCCC2)c1 [fexarene] | No induction | 1 µM | induced expression of the IBABP mRNA | No activity
– | 222 nM | COC(=O)/C=C/c1cccc(N(Cc2ccc(-c3ccc4c(c3)OCO4)cc2)C(=O)C2CCCCC2)c1 [fexarine] | No induction | 1 µM | induced expression of the IBABP mRNA | No activity
